The compounds below were run against T1, 5-HT 1B receptors (Homo sapiens, UniProt P28222) (assay: 5-HT 1B and 5-HT 1D receptor binding ([3H]-5-HT displacement, CHO cell homogenates)). Conditions: CHO cells expressing receptor; [3H]-5-HT 4 nM; Tris Mg HCl buffer pH 7.7; 37° C., 45 minutes; pKi calculated from IC50.
T1 construct: expressed in transfected cells; host or cells: CHO cells (homogenised in Tris buffer)
T1 sequence (P28222 whole entry): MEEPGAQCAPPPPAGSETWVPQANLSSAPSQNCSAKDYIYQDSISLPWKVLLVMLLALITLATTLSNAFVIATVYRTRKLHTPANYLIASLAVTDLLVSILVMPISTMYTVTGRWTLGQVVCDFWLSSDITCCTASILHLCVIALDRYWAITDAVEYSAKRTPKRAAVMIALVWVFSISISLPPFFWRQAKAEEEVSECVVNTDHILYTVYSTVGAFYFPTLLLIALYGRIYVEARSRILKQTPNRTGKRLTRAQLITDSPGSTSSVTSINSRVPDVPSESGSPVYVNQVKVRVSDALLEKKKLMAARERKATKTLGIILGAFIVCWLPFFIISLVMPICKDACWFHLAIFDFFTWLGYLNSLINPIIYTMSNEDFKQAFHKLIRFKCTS
Method: CHO cells expressing 5-HT 1D receptors (0.563×10^8 cells/ml) were homogenised in Tris buffer and stored in 1 ml aliquots. CHO cells expressing 5-HT 1B receptors (4×10^7 cells/ml) were homogenised in Tris buffer and stored in 1.5 ml aliquots. 0.4 ml of a cell suspension was incubated with [^3 H-5-HT (4 nM) in Tris Mg HCl buffer (pH 7.7) and test drug, at 37° C. for 45 minutes. Each test drug was tested at 10 concentrations (0.01 mM to 0.3 nM final concentration), with non-specific binding defined using 0.01 mM 5-HT. The total assay volume was 0.5 ml. Incubation was stopped by rapid filtration using a Packard Filtermate (filters pre-soaked in 0.3% polyethylenimine) and radioactivity measured by Topcount scintillation counting. pKi values were calculated from the IC50 generated by an iterative least squares curve fitting programme.
In the case of `Cc1cc(N2CCCC2=O)ccc1-c1ccc(C(=O)N2CCc3cc4c(cc32)C2(CO4)C[C@@H](C)N(C)[C@@H](C)C2)cc1` (stereo partly drawn) [Example 28, cis-2',6'-dimethyl isomer of 5-[2'-Methyl-4'-(2-oxopyrrolidin-1-yl)biphenyl-4-carbonyl]-2,3,6,7-tetrahydro-1',2',6'-trimethylspiro[furo[2,3-f]indole-3,4'-piperidine]], the “pKi values at 5-HT 1D beta receptors” value is reported as over 8.0.

Same assay, conditions: CHO cells expressing receptor; [3H]-5-HT 4 nM; Tris Mg HCl buffer pH 7.7; 37° C., 45 minutes; pKi calculated from IC50; read-out: pKi values at 5-HT 1D beta receptors (converted)
Compound `Cc1cc(N2CCOC2=O)ccc1-c1ccc(C(=O)N2CCc3cc4c(cc32)C2(CCN(C)CC2)CO4)cc1` [Example 3, 5-[4'-(4,5-Dihydro-2-oxooxazol-3-yl)-2'-methylbiphenyl-4-carbonyl]-1'-methyl-2,3,6,7-tetrahydrospiro[furo[2,3-f]indole-3,4'-piperidine]] has a Ki of under 10 nM. `CC(=O)Nc1ccc(-c2ccc(C(=O)N3CCc4cc5c(cc43)C3(CCN(C)CC3)CO5)cc2)c(C)c1` [Example 4, 5-(4'-Acetamido-2'-methylbiphenyl-4-carbonyl)-1'-methyl-2,3,6,7-tetrahydrospiro[furo[2,3-f]indole-3,4'-piperidine]] showed a Ki of under 10 nM. With `Cc1cc(N2CCNC2=O)ccc1-c1ccc(C(=O)N2CCc3cc4c(cc32)C2(CCN(C)CC2)CO4)cc1` [Example 7] the Ki was under 10 nM. Work on `Cc1cc(N2CCN(C)C2=O)ccc1-c1ccc(C(=O)N2CCc3cc4c(cc32)C2(CCN(C)CC2)CO4)cc1` [Example 8] yielded a Ki of under 10 nM. Work on `Cc1cc(N2CCC(C)C2=O)ccc1-c1ccc(C(=O)N2CCc3cc4c(cc32)C2(CCN(C)CC2)CO4)cc1` (stereo not drawn) [Example 9] yielded a Ki of under 10 nM. `CN1CCC2(CC1)COc1cc3c(cc12)N(C(=O)c1ccc(-c2ccc(N4CCCC4=O)cc2Cl)cc1)CC3` [Example 14] gave a Ki of under 10 nM. With `C=CCN1CCC2(CC1)COc1cc3c(cc12)N(C(=O)c1ccc(-c2ccc(N4CCCC4=O)cc2C)cc1)CC3` [Example 24, 1'-Allyl-5-[2'-methyl-4'-(2-oxopyrrolidin-1-yl)biphenyl-4-carbonyl]-2,3,6,7-tetrahydrospiro[furo[2,3-f]indole-3,4'-piperidine]] the Ki was under 10 nM. For `Cc1cc(N2CCCC2=O)ccc1-c1ccc(C(=O)C2=C3CC4=C(C=C3N=C2)OCC42CCN(C)CC2)cc1` [Example 33, 2,3-Dihydro-1'-methyl-5-[2'-methyl-4'-(2-oxopyrrolidin-1-yl)biphenyl-4-carbonyl]spiro[furo[3,2-f]indole3,4'-piperidine]], the Ki was under 10 nM.

— patent US6100272A, “Tetracyclic spiro compounds as 5HT1B receptor antagonists” (SmithKline Beecham p.l.c., priority 1996, dated 2000)
